Data taken from patent publication US20160175318A1, “COMPOSITIONS COMPRISING ANTIBACTERIAL AGENT AND TAZOBACTAM” (WOCKHARDT LIMITED, priority 2013, published 2016).
Where two headings read alike, the source gives them in different places.

Assays:
Type in all cases: cell-based
K. pneumoniae M150 = assay: MIC by agar dilution (CLSI) against highly resistant ESBL strain
Procedure, shortened: (§1)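 Agar dilution, CLSI: diluted overnight inoculum on doubling-dilution antibiotic plates; cephalosporins ± tazobactam; 16-20 h, 35±2° C, ambient air; growth/no growth read.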

E. cloacae M-20 = assay: as above; conditions: E. cloacae M-20
Procedure, shortened: as §1

E. coli M50 [1] = assay: as above
Procedure, shortened: as §1

E. coli B-89 [2] = assay: as above; conditions: E. coli B-89
Procedure, shortened: as §1

E. coli B123 = assay: as above; conditions: for Activity (MIC, method of Example 1), Table 7: E. coli B-123; for MIC: Escherichia coli, B123, E. coli B123, read-out: MIC
Procedure, shortened: as §1

E. coli 7MP [3] = assay: as above; conditions: E. coli 7MP
Procedure, shortened: as §1

E. coli M-138 = assay: Quantitative drug diffusion assay (disc, zone of inhibition, CLSI); set-up: key to Interpretation of zone as per CLSI recommendations: R: Resistant; I: Intermediate; S: Sensitive (Interpretation as per CLSI recommendations, 2010)
Procedure, shortened: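 Zone diameter read after 16-18 h, 35±2° C, ambient air, around 6 mm antibiotic-loaded discs on agar seed-inoculated with diluted overnight culture. CLSI method; cefepime/tazobactam and penicillin/ESBL-inhibitor combinations.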

E. coli S-112 = assay: as above; set-up: key to Interpretation of zone as per CLSI recommendations: R: Resistant; I: Intermediate; S: Sensitive (Interpretation as per CLSI recommendations, 2010)
Procedure, shortened: (§2)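 Cefepime plus tazobactam and penicillins plus their ESBL inhibitors tested by CLSI disc diffusion. Diluted overnight cultures were seeded into molten, cooled agar; 6 mm antibiotic discs placed on the surface. Inhibition zones read after 16-18 h at 35±2° C in ambient air.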

E. coli M50 [4] = assay: as above; set-up: key to Interpretation of zone as per CLSI recommendations: R: Resistant; I: Intermediate; S: Sensitive (Interpretation as per CLSI recommendations, 2010)
Procedure, shortened: as §2

E. coli B-89 [5] = assay: as above; set-up: key to Interpretation of zone as per CLSI recommendations: R: Resistant; I: Intermediate; S: Sensitive (Interpretation as per CLSI recommendations, 2010)
Procedure, shortened: as §2

E. coli B-123 = assay: as above; set-up: key to Interpretation of zone as per CLSI recommendations: R: Resistant; I: Intermediate; S: Sensitive (Interpretation as per CLSI recommendations, 2010)
Procedure, shortened: as §2

E. coli 7MP [6] = assay: as above; set-up: key to Interpretation of zone as per CLSI recommendations: R: Resistant; I: Intermediate; S: Sensitive (Interpretation as per CLSI recommendations, 2010)
Procedure, shortened: as §2

[7] = ESBL inhibitor 0 mcg (antibiotic alone)
[8] = Table 5, with Tazobactam 10 mcg

For CO/N=C(\C(=O)N[C@@H]1C(=O)N2C(C(=O)[O-])=C(C[N+]3(C)CCCC3)CS[C@H]12)c1csc(N)n1 [Cefepime], the MIC (K. pneumoniae M150; K. pneumoniae M150, with Tazobactam 4 mcg) was 4 µg/mL, the MIC (K. pneumoniae M150; K. pneumoniae M150, with Tazobactam 8 mcg) was 4 µg/mL and the MIC (K. pneumoniae M150; Klebsiella pneumoniae, M150, K. pneumoniae M150, Tazobactam 0 mcg (antibiotic alone), read-out: MIC) was over 64 µg/mL. The MIC (K. pneumoniae M150; Klebsiella pneumoniae, M150, K. pneumoniae M150, with Tazobactam 4 mcg, read-out: MIC) was 4 µg/mL, the MIC (K. pneumoniae M150; Klebsiella pneumoniae, M150, K. pneumoniae M150, with Tazobactam 8 mcg, read-out: MIC) was 4 µg/mL and the Activity (MIC, method of Example 1), Table 7 (E. cloacae M-20; antibiotic alone) was over 64 µg/mL. The Activity (MIC, method of Example 1), Table 7 (E. cloacae M-20; with Clavulanic acid 4 mcg) was 16 µg/mL, the Activity (MIC, method of Example 1), Table 7 (E. cloacae M-20; with Clavulanic acid 8 mcg) was 8 µg/mL and the Activity (MIC, method of Example 1), Table 7 (E. cloacae M-20; with Sulbactam 4 mcg) was 32 µg/mL. For the same molecule, the Activity (MIC, method of Example 1), Table 7 (E. cloacae M-20; with Sulbactam 8 mcg) was 16 µg/mL, the Activity (MIC, method of Example 1), Table 7 (E. cloacae M-20; with Tazobactam 4 mcg) was 4 µg/mL and the MIC (E. cloacae M-20; with Tazobactam 8 mcg) was 4 µg/mL. For the same molecule, the Activity (MIC, method of Example 1), Table 7 (E. cloacae M-20; with Tazobactam, (4 mcg)) was 4 µg/mL, the MIC (E. cloacae M-20; Enterobacter cloacae, M20, 20 h, Tazobactam 0 mcg (antibiotic alone), read-out: MIC) was over 64 µg/mL and the MIC (E. coli M50 [1]; Escherichia coli, 20 h, Tazobactam 0 mcg (antibiotic alone), read-out: MIC) was over 64 µg/mL. For the same molecule, the MIC (E. coli M50 [1]; with Tazobactam 4 mcg) was 2 µg/mL, the MIC (E. coli M50 [1]; with Tazobactam 8 mcg) was 2 µg/mL and the MIC (E. coli B-89 [2]; with Tazobactam 8 mcg) was 2 µg/mL. It also gave an MIC (E. coli B-89 [2]; Escherichia coli, B89, 20 h, Tazobactam 0 mcg (antibiotic alone), read-out: MIC) of over 64 µg/mL, an Activity (MIC, method of Example 1), Table 7 (E. coli B123; antibiotic alone) of over 64 µg/mL and an Activity (MIC, method of Example 1), Table 7 (E. coli B123; with Clavulanic acid 4 mcg) of 8 µg/mL. The Activity (MIC, method of Example 1), Table 7 (E. coli B123; with Clavulanic acid 8 mcg) was 8 µg/mL, the Activity (MIC, method of Example 1), Table 7 (E. coli B123; with Sulbactam 4 mcg) was 8 µg/mL and the Activity (MIC, method of Example 1), Table 7 (E. coli B123; with Sulbactam 8 mcg) was 16 µg/mL. The Activity (MIC, method of Example 1), Table 7 (E. coli B123; with Tazobactam 4 mcg) was 4 µg/mL, the Activity (MIC, method of Example 1), Table 7 (E. coli B123; with Tazobactam, (4 mcg)) was 2 µg/mL and the MIC (E. coli B123; Tazobactam 0 mcg (antibiotic alone)) was over 64 µg/mL. The MIC (E. coli B123; with Tazobactam 4 mcg) was 4 µg/mL, the MIC (E. coli B123; with Tazobactam 8 mcg) was 2 µg/mL and the Activity (MIC, method of Example 1), Table 7 (E. coli 7MP [3]; antibiotic alone) was over 64 µg/mL. For the same molecule, the Activity (MIC, method of Example 1), Table 7 (E. coli 7MP [3]; with Clavulanic acid 4 mcg) was 16 µg/mL, the Activity (MIC, method of Example 1), Table 7 (E. coli 7MP [3]; with Clavulanic acid 8 mcg) was 8 µg/mL and the Activity (MIC, method of Example 1), Table 7 (E. coli 7MP [3]; with Sulbactam 4 mcg) was 16 µg/mL. The Activity (MIC, method of Example 1), Table 7 (E. coli 7MP [3]; with Sulbactam 8 mcg) was 16 µg/mL, the Activity (MIC, method of Example 1), Table 7 (E. coli 7MP [3]; with Tazobactam 4 mcg) was 8 µg/mL and the MIC (E. coli 7MP [3]; with Tazobactam 4 mcg) was 8 µg/mL. For the same molecule, the MIC (E. coli 7MP [3]; with Tazobactam 8 mcg) was 4 µg/mL, the Activity (MIC, method of Example 1), Table 7 (E. coli 7MP [3]; with Tazobactam, (4 mcg)) was 4 µg/mL and the MIC (E. coli 7MP [3]; Escherichia coli, 7MP, 20 h, Tazobactam 0 mcg (antibiotic alone), read-out: MIC) was over 64 µg/mL. For the same molecule, the “Zone of Inhibition” value (E. coli M-138; [7]) was “Nil”, the “Interpretation of zone as per CLSI recommendations” value (E. coli M-138; Table 5, ESBL inhibitor 0 mcg) was “(R)” and the “Interpretation of zone as per CLSI recommendations” value (E. coli M-138; [8]) was “(S)”. For the same molecule, the “Zone of Inhibition” value (E. coli M-138; with Tazobactam 10 mcg) was 23 mm, the “Zone of Inhibition” value (E. coli S-112; [7]) was 17 mm and the “Interpretation of zone as per CLSI recommendations” value (E. coli S-112; Table 5, ESBL inhibitor 0 mcg) was “(I)”. For the same molecule, the “Interpretation of zone as per CLSI recommendations” value (E. coli S-112; [8]) was “(S)”, the “Zone of Inhibition” value (E. coli S-112; with Tazobactam 10 mcg) was 20.5 mm and the “Zone of Inhibition” value (E. coli M50 [4]; [7]) was 7.5 mm. For the same molecule, the “Interpretation of zone as per CLSI recommendations” value (E. coli M50 [4]; Table 5, ESBL inhibitor 0 mcg) was “(R)”, the “Interpretation of zone as per CLSI recommendations” value (E. coli M50 [4]; [8]) was “(S)” and the “Zone of Inhibition” value (E. coli M50 [4]; with Tazobactam 10 mcg) was 24 mm. For the same molecule, the “Zone of Inhibition” value (E. coli B-89 [5]; [7]) was 8 mm, the “Interpretation of zone as per CLSI recommendations” value (E. coli B-89 [5]; Table 5, ESBL inhibitor 0 mcg) was “(R)” and the “Interpretation of zone as per CLSI recommendations” value (E. coli B-89 [5]; [8]) was “(S)”. For the same molecule, the “Zone of Inhibition” value (E. coli B-89 [5]; with Tazobactam 10 mcg) was 20 mm, the “Zone of Inhibition” value (E. coli B-123; [7]) was 8 mm and the “Interpretation of zone as per CLSI recommendations” value (E. coli B-123; Table 5, ESBL inhibitor 0 mcg) was “(R)”. The “Interpretation of zone as per CLSI recommendations” value (E. coli B-123; [8]) was “(S)”, the “Zone of Inhibition” value (E. coli B-123; with Tazobactam 10 mcg) was 20 mm and the “Zone of Inhibition” value (E. coli 7MP [6]; [7]) was 16 mm. For the same molecule, the “Interpretation of zone as per CLSI recommendations” value (E. coli 7MP [6]; Table 5, ESBL inhibitor 0 mcg) was “(I)”, the “Interpretation of zone as per CLSI recommendations” value (E. coli 7MP [6]; [8]) was “(S)” and the “Zone of Inhibition” value (E. coli 7MP [6]; with Tazobactam 10 mcg) was 20.5 mm.
